Patent publication US7282590B2, “Drug conjugates” (The Research Foundation of State University of New York, priority 2004, dated 2007)

What was measured:
[1] = Cleavage of the disulfide bond in the drug-linker conjugate (drug release with cysteine as a model of glutathione, monitored by HPLC); assay type: physicochemical; conditions: cysteine in buffer pH 7.0 / CH3CN, room temperature, after 2 hours
Method: In order to confirm that the designed drug-release mechanism works under physiological conditions, a control experiment was performed using an anticancer linker drug conjugate and cysteine as a model of glutathione. The results of the experiment below provide clear evidence that the drug is released according to the desired mechanism of the invention.
To a solution of the drug-linker conjugate, 2′-(5-fluoro-2-methyldisulfanylphenyl)acetyl-3′-dephenyl-3′-(2-methylpropyl)-10-propanoyldocetaxel, (4.8 mg, 0.0045 mmol) in CH3CN (1.1 mL) was added cysteine (2.20 mg, 0.018 mmol) in buffer (pH 7.0, 0.56 mL) solution. The mixture was stirred at room temperature. The progress of the disulfide cleavage and drug release process was monitored by HPLC [Conditions: C-18 column. Flow rate: H2O, 0.6 mL/min; CH3CN, 0.4 mL/min., ambient temperature] periodically. The formations of thiolactone (5-fluoro-3H-benzo[b]thiophen-2-one) (retention time=9.05 min) and taxoid (3′-dephenyl-3′-(2-methylpropyl)-10-propanoyldocetaxel) (retention time=14.01 min) as well as the disappearance of the drug-linker conjugate (retention time=18.20 min) was clearly observed.

| disappearance of the drug-linker conjugate (disulfide cleavage and drug release: release of the taxoid, formation of the thiolactone) [1] | melting point [°C] | Compound |
| --- | --- | --- |
| completely disappeared |  | 2′-(5-fluoro-2-methyldisulfanylphenyl)acetyl-3′-dephenyl-3′-(2-methylpropyl)-10-propanoyldocetaxel |
|  | 122 to 125 | CC(C)(CC(=O)O)c1ccccc1SSc1ccccn1 [Example 7, 3-Methyl-3-[2-(pyridine-2-yldisulfanyl)phenyl]butanoic acid] |
